Reference: patent publication US20230027066A1 (Urovant Sciences GmbH, priority 2019, published 2023)

Columns and labels:
CYP2D6 = CYP2D6 (Homo sapiens, UniProt P10635); experiment: drug interaction study of vibegron and tolterodine (sensitive CYP2D6 substrate); settings: vibegron 100 mg QD at steady state
[1] = tested on: males and females with OAB; experiment: Phase 3 study of vibegron 50 mg and 100 mg, 12 weeks, efficacy; format: in vivo, human
[2] = dose-Cmax and dose-AUC models / log-log regression from Phase 1 data
Experimental: In order to contextualize PK parameters of a 75 mg dose, dose-Cmax and dose-AUC models were created using data from Phase 1 studies.

[3] = ABPM study, adverse events; format: in vivo, human; settings: 75 mg, 28 days
Experimental: (§1) Safety was evaluated by assessment of clinical laboratory tests, physical examinations, and vital signs measurements from office visits at various time points during the study, and by the documentation of AEs.
Safety Set (SAF): All subjects who received at least one dose of double-blind study treatment were included in the SAF. Subjects were included in the treatment group corresponding to the Study Treatment that was actually received. This was the population used to summarize safety analyses collected during clinic visits and correspondence with site staff; summarization of baseline/demographic characteristics also presented for the SAF.

[4] = ABPM study, in-clinic vital signs; format: in vivo, human; settings: Baseline to Day 28, SAF
Experimental: as §1
Tables 106, 107, and 108 show the changes to in-clinic measurements of systolic blood pressure, diastolic blood pressure, and heart rate over the treatment period.
For subjects with a body weight of at least about 65.4 kg, there was no difference between treatment and placebo in the number of subjects with a ≥5, ≥10, or ≥15 mm Hg increase in systolic blood pressure. The same was true for subjects over the age of 66.

[5] = estimated 75 mg vs 200 mg single dose
[6] = estimated 75 mg vs 400 mg single dose
[7] = subgroup Age <= 75th percentile (66 years)
[8] = subgroup Age > 75th percentile (66 years)
[9] = subgroup Body Weight <= 25th Percentile (65.4 kg)
[10] = subgroup Body Weight > 25th Percentile (65.4 kg)
[11] = subgroup Pre-existing hypertension: NO

CYP2D6, sequence (P10635 whole entry): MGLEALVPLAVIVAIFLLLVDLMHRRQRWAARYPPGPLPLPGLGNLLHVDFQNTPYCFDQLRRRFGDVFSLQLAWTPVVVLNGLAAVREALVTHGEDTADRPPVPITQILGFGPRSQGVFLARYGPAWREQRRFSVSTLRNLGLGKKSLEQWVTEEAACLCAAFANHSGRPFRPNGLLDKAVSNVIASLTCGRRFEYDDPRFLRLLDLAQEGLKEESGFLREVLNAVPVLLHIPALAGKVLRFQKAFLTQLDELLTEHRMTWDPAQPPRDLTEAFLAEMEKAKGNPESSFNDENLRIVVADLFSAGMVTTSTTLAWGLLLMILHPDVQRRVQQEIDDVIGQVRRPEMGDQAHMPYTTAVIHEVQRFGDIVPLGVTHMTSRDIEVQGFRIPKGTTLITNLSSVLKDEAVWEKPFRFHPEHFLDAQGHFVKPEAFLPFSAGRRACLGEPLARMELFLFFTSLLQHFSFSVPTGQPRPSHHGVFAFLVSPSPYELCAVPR

## O=C(Nc1ccc(C[C@@H]2CC[C@H]([C@H](O)c3ccccc3)N2)cc1)[C@@H]1CCc2nccc(=O)n21 [Vibegron, (6S)-N-[4-[[(2S,5R)−5-[(R)-hydroxy(phenyl)methyl]pyrrolidin−2-yl]methyl]phenyl]−4-oxo−7,8-dihydro−6H-pyrrolo[1,2-a]pyrimidine−6-carboxamide]
CYP2D6
  inhibition of CYP2D6 (conclusion from tolterodine interaction study): does not inhibit CYP2D6
[1]; vibegron 50 mg once daily
  Micturitions: LS mean placebo adjusted change from baseline (95% CI) at Week 12: −0.86 (−1.12, −0.60)
  Total incontinence episodes: LS mean placebo adjusted change from baseline (95% CI) at Week 12: −0.30 (−0.49, −0.12)
  Urge urinary incontinence episodes: LS mean placebo adjusted change from baseline (95% CI) at Week 12: −0.27 (−0.44, −0.10)
  Urgency episodes: LS mean placebo adjusted change from baseline (95% CI) at Week 12: −0.51 (−0.76, −0.25)
[1]; vibegron 100 mg once daily
  Micturitions: LS mean placebo adjusted change from baseline (95% CI) at Week 12: −0.81 (−1.07, −0.55)
  Total incontinence episodes: LS mean placebo adjusted change from baseline (95% CI) at Week 12: −0.43 (−0.61, −0.24)
  Urge urinary incontinence episodes: LS mean placebo adjusted change from baseline (95% CI) at Week 12: −0.39 (−0.55, −0.22)
  Urgency episodes: LS mean placebo adjusted change from baseline (95% CI) at Week 12: −0.67 (−0.93, −0.42)
[2]; [5]
  AUC of 75 mg dose lower than 200 mg single dose: ~2 fold
  Cmax of 75 mg dose lower than 200 mg single dose: approximately 3.3 fold
[2]; [6]
  AUC of 75 mg dose lower than 400 mg single dose: ~6 fold
  Cmax of 75 mg dose lower than 400 mg single dose: ~9.2 fold
[2]; vibegron 50 vs 100 mg
  increase in Cmax with increase in dose from 50 to 100 mg: ~3 fold
[2]; vibegron 75 vs 100 mg
  reduction in Cmax with a 25% reduction in dose (100 mg to 75 mg): ~40%
[3]; Randomized N = 106
  Discontinued the study: Adverse Event, subjects n: 2
[3]; Safety N = 106
  AECIs: 8 (7.5) n (%)
  AEs Leading to Treatment Discontinuation: 3 (2.8) n (%)
  Adverse event: Blood pressure increased: 0 n (%)
  Adverse event: Constipation: 2 (1.9) n (%)
  Adverse event: Diarrhea: 3 (2.8) n (%)
  Adverse event: Dry mouth: 3 (2.8) n (%)
  Adverse event: Fatigue: 3 (2.8) n (%)
  Adverse event: Haematuria: 3 (2.8) n (%)
  Adverse event: Headache: 4 (3.8) n (%)
  Adverse event: Hypertension: 5 (4.7) n (%)
  Adverse event: Hypotension: 1 (0.9) n (%)
  Adverse event: Increased residual urine: 0 n (%)
  Adverse event: Nasopharyngitis: 3 (2.8) n (%)
  Adverse event: Nausea: 3 (2.8) n (%)
  Adverse event: Tachycardia: 0 n (%)
  Adverse event: Upper respiratory tract infection: 5 (4.7) n (%)
  Adverse event: Urinary retention: 1 (0.9) n (%)
  Adverse event: Urinary tract infection: 3 (2.8) n (%)
  Fatal adverse event: 0 n (%)
  Serious adverse event (SAE): 1 (0.9) n (%)
  Treatment emergent Adverse event (AE): 49 (46.2) n (%)
  Treatment-related AECIs: 3 (2.8) n (%)
  Treatment-related SAE by the investigator: 0 n (%)
[4]
  In-clinic DBP (mmHg) change from baseline ≥5, subjects: 24 (23.3) n (%)
  In-clinic DBP (mmHg) change from baseline ≥10, subjects: 9 (8.7) n (%)
  In-clinic DBP (mmHg) change from baseline ≥15, subjects: 2 (1.9) n (%)
  In-clinic HR (bpm) change from baseline ≥5, subjects: 24 (23.3) n (%)
  In-clinic HR (bpm) change from baseline ≥10, subjects: 8 (7.8) n (%)
  In-clinic HR (bpm) change from baseline ≥15, subjects: 3 (2.9) n (%)
  In-clinic SBP (mmHg) change from baseline ≥5, subjects: 33 (32.0) n (%)
  In-clinic SBP (mmHg) change from baseline ≥10, subjects: 22 (21.4) n (%)
  In-clinic SBP (mmHg) change from baseline ≥15, subjects: 10 (9.7) n (%)
[4]; [7]
  In-clinic SBP change from baseline ≥5, subjects: 28 (34.6) n (%)
  In-clinic SBP change from baseline ≥10, subjects: 18 (22.2) n (%)
  In-clinic SBP change from baseline ≥15, subjects: 9 (11.1) n (%)
[4]; [8]
  In-clinic SBP change from baseline ≥5, subjects: 5 (22.7) n (%)
  In-clinic SBP change from baseline ≥10, subjects: 4 (18.2) n (%)
  In-clinic SBP change from baseline ≥15, subjects: 1 (4.5) n (%)
[4]; [9]
  In-clinic SBP change from baseline ≥5, subjects: 9 (32.1) n (%)
  In-clinic SBP change from baseline ≥10, subjects: 6 (21.4) n (%)
  In-clinic SBP change from baseline ≥15, subjects: 2 (7.1) n (%)
[4]; [10]
  In-clinic SBP change from baseline ≥5, subjects: 24 (32.0) n (%)
  In-clinic SBP change from baseline ≥10, subjects: 16 (21.3) n (%)
  In-clinic SBP change from baseline ≥15, subjects: 8 (10.7) n (%)
[4]; [11]
  In-clinic SBP change from baseline ≥5, subjects: 20 (31.3) n (%)
  In-clinic SBP change from baseline ≥10, subjects: 13 (20.3) n (%)
  In-clinic SBP change from baseline ≥15, subjects: 6 (9.4) n (%)
